US20240009173A1, “Use of 5-HT3-Targeting Drugs for Treatment of Acute Kidney Injury” (priority 2020, published 2024)
Like-named read-outs stand apart in the source and are kept apart here.

How the values were obtained:
patients with AKI [1] = details: human, in vivo
ICU patients with AKI = details: cited from earlier work
patients with AKI [2] = details: human, in vivo; remark: listed apart in the source
all ICU patients = details: cited from earlier work
patients with AKI [3] = tested on: patients with AKI; set-up: species or system human; details: in vivo
[4] = literature and/or clinical trials

Molecule	Death rate in MIMIC III database (patients with AKI [1])	Reported for protecting effect in ICU patients with AKI (ICU patients with AKI; [4])	Death rate in eICU database (patients with AKI [2])	Reported for protecting effect in all ICU patients (all ICU patients; [4])	Coefficient (patients with AKI [3])	Reported for protecting effect in ICU patients with AKI (ICU patients with AKI)	Reported for protecting effect in all ICU patients (all ICU patients)
CC1=C(C/C=C(\C)CCC[C@H](C)CCC[C@H](C)CCCC(C)C)C(=O)c2ccccc2C1=O [Phytonadione]	364.17 per 1,000 patients	N	335.33 per 1,000 patients	Y			
CC(C)(C)NCC(O)c1ccc(O)c(CO)c1 (stereo not shown) [Albuterol]	257.20 per 1,000 patients		174.59 per 1,000 patients				
C[C@@H]1C[C@H]2[C@@H]3CCC4=CC(=O)C=C[C@]4(C)[C@@]3(F)[C@@H](O)C[C@]2(C)[C@@]1(O)C(=O)CO [Dexamethasone]	375 per 1,000 patients		58.14 per 1,000 patients				
NCCCC[C@H](N[C@@H](CCc1ccccc1)C(=O)O)C(=O)N1CCC[C@H]1C(=O)O [Lisinopril]	53.11 per 1,000 patients	Y^15	21.71 per 1,000 patients	Y^14	−0.049		
CN1CC[C@]23c4c5ccc(O)c4O[C@H]2[C@@H](O)C=C[C@H]3[C@H]1C5 [Morphine]	376.48 per 1,000 patients		234.81 per 1,000 patients		0.198	N	Y^1
C[C@H]1COc2c(N3CCN(C)CC3)c(F)cc3c(=O)c(C(=O)O)cn1c23 [Levofloxacin]	270.20 per 1,000 patients		146.84 per 1,000 patients				
COc1ccc2c3c1O[C@H]1C(=O)CC[C@@]4(O)[C@@H](C2)N(C)CC[C@]314 [Oxycodone]	94.98 per 1,000 patients		55.56 per 1,000 patients		−0.089	N	Y^9
NC[C@H](O)c1ccc(O)c(O)c1 [Norepinephrine]	497.51 per 1,000 patients	N	336.62 per 1,000 patients	Y^2	0.167		
O=C(CCCN1CCC(O)(c2ccc(Cl)cc2)CC1)c1ccc(F)cc1 [Haloperidol]	194.85 per 1,000 patients	N	201.23 per 1,000 patients	N	−0.063		
COc1ccnc(C[S+]([O-])c2nc3ccc(OC(F)F)cc3[nH]2)c1OC (stereo not shown) [Pantoprazole]	254.46 per 1,000 patients		151.82 per 1,000 patients		−0.025		
Glucagon	176.04 per 1,000 patients		129.74 per 1,000 patients		−0.050		
CC(=O)Nc1ccc(O)cc1 [Acetaminophen]	181.26 per 1,000 patients	N	123.47 per 1,000 patients	N	−0.040		
[H]/N=C(\N/C(=N/[H])NCCCCCCNC(=N)NC(=N)Nc1ccc(Cl)cc1)Nc1ccc(Cl)cc1 [Chlorhexidine]	328.48 per 1,000 patients		222.98 per 1,000 patients				
CO/N=C(\C(=O)N[C@@H]1C(=O)N2C(C(=O)[O-])=C(C[N+]3(C)CCCC3)CS[C@H]12)c1csc(N)n1 [Cefepime]	340.81 per 1,000 patients		228.51 per 1,000 patients				
OC[C@H]1O[C@@H](O[C@@H]2[C@@H](CO)OC(O)(CO)[C@H]2O)[C@H](O)[C@@H](O)[C@H]1O (mixture of isomers) [Lactulose]	326.35 per 1,000 patients	N	233.56 per 1,000 patients	N			
Insulin	241.12 per 1,000 patients		172.01 per 1,000 patients				
O=S(=O)([O-])[O-].[Mg+2] [Magnesium Sulfate]	203.36 per 1,000 patients		172.14 per 1,000 patients		−0.054	Y^4	Y^3
OC(Cn1cncn1)(Cn1cncn1)c1ccc(F)cc1F [Fluconazole]	333.33 per 1,000 patients	Y^6		Y^5			
O=C1Nc2ccc(Cl)cc2C(c2ccccc2Cl)=NC1O (stereo not shown) [Lorazepam]	285.59 per 1,000 patients		228.92 per 1,000 patients		0.031	N	N

Molecule	Death rate in MIMIC III database (patients with AKI [1])	Reported for protecting effect in ICU patients with AKI (ICU patients with AKI; [4])	Death rate in eICU database (patients with AKI [2])	Reported for protecting effect in all ICU patients (all ICU patients; [4])	Coefficient (patients with AKI [3])	Reported for protecting effect in ICU patients with AKI (ICU patients with AKI)	Reported for protecting effect in all ICU patients (all ICU patients)
CN[C@H](CC(C)C)C(=O)N[C@H]1C(=O)N[C@@H](CC(N)=O)C(=O)N[C@H]2C(=O)N[C@H]3C(=O)N[C@H](C(=O)N[C@H](C(=O)O)c4cc(O)cc(O)c4-c4cc3ccc4O)[C@H](O)c3ccc(c(Cl)c3)Oc3cc2cc(c3O[C@@H]2O[C@H](CO)[C@@H](O)[C@H](O)[C@H]2O[C@H]2C[C@](C)(N)[C@H](O)[C@H](C)O2)Oc2ccc(cc2Cl)[C@H]1O [Vancomycin]	300.03 per 1,000 patients		229.29 per 1,000 patients				
C[C@@H](O)[C@H]1C(=O)N2C(C(=O)O)=C(S[C@@H]3CN[C@H](C(=O)N(C)C)C3)[C@H](C)[C@H]12 [Meropenem]	460.50 per 1,000 patients	Y^13	269.96 per 1,000 patients	Y^12	0.076		
CC(=O)CC(c1ccccc1)c1c(O)c2ccccc2oc1=O (stereo not shown) [Warfarin]	67.31 per 1,000 patients	N	35.34 per 1,000 patients	Y^1	−0.115		
CC(C)c1c(C(=O)Nc2ccccc2)c(-c2ccccc2)c(-c2ccc(F)cc2)n1CC[C@@H](O)C[C@@H](O)CC(=O)O [Atorvastatin]	156.06 per 1,000 patients		88.66 per 1,000 patients				
CC(C)c1cccc(C(C)C)c1O [Propofol]	287.82 per 1,000 patients		261.45 per 1,000 patients			Y^17	Y^16
C[C@H](CS)C(=O)N1CCC[C@H]1C(=O)O [Captopril]	133.04 per 1,000 patients	Y^19		Y^18	−0.044		
NNc1nncc2ccccc12 [Hydralazine]	155.12 per 1,000 patients		80.60 per 1,000 patients		−0.035		
CCN1CCN(C(=O)N[C@@H](C(=O)N[C@@H]2C(=O)N3[C@@H]2SC(C)(C)[C@@H]3C(=O)O)c2ccccc2)C(=O)C1=O [Piperacillin]	336.96 per 1,000 patients	N	200.39 per 1,000 patients	Y			
C[C@]12C=CC(=O)C=C1CC[C@@H]1[C@@H]2C(=O)C[C@@]2(C)[C@H]1CC[C@]2(O)C(=O)CO [Prednisone]	191.30 per 1,000 patients		60.49 per 1,000 patients				
O=[N+]([O-])OCC(CO[N+](=O)[O-])O[N+](=O)[O-] [Nitroglycerin]	192.42 per 1,000 patients		758.55 per 1,000 patients			N	N
CC(C)[N+]1(C)[C@@H]2CC[C@H]1C[C@@H](OC(=O)C(CO)c1ccccc1)C2 (stereo partly shown) [Ipratropium]	258.87 per 1,000 patients		172.83 per 1,000 patients				
N[C@@H](Cc1cc(I)c(Oc2cc(I)c(O)c(I)c2)c(I)c1)C(=O)O [Levothyroxine]	218.39 per 1,000 patients		109.02 per 1,000 patients				
CC(=O)Oc1ccc(C(c2ccc(OC(C)=O)cc2)c2ccccn2)cc1 [Bisacodyl]	194.46 per 1,000 patients		156.59 per 1,000 patients		−0.021		
C=CC[C@@H]1/C=C(\C)C[C@H](C)C[C@H](OC)[C@H]2O[C@@](O)(C(=O)C(=O)N3CCCC[C@H]3C(=O)O[C@H](/C(C)=C/[C@@H]3CC[C@@H](O)[C@H](OC)C3)[C@H](C)[C@@H](O)CC1=O)[C@H](C)C[C@@H]2OC [Tacrolimus]	153.28 per 1,000 patients		40 per 1,000 patients				
COc1ccc([C@@H]2Sc3ccccc3N(CCN(C)C)C(=O)[C@@H]2OC(C)=O)cc1 [Diltiazem]	274.96 per 1,000 patients		121.74 per 1,000 patients				
Cc1ncc([N+](=O)[O-])n1CCO [Metronidazole]	338.05 per 1,000 patients		230.12 per 1,000 patients				
CC(=O)Oc1ccccc1C(=O)O [Aspirin]	178.97 per 1,000 patients		126.32 per 1,000 patients				
NC(N)=Nc1nc(CSCCC(N)=NS(N)(=O)=O)cs1 [Famotidine]	260.79 per 1,000 patients		184.42 per 1,000 patients				
